Experimental data as given in patent US20240279237A1, “FUSED BICYCLIC HETEROARYL COMPOUNDS USEFUL AS NLRP3 INHIBITORS” (Hoffmann-La Roche Inc., priority 2021, published 2024).
Structures can show the parent of a compound that is named as a salt.

Each compound was assayed against T1, NLRP3 (Homo sapiens, UniProt Q96P20) (assay: THP-1 Cells Pyroptosis Assay). Conditions: THP-1 cells with 1.0 μg/ml LPS; compound 3 hours; nigericin 5 μM 1 hr; resazurin readout.
T1 construct: Seed THP-1 cells (25,000 cells/well) containing 1.0 μg/ml LPS in 40 μl of RPMI medium; host or cells: THP-1 cells
T1 sequence (Q96P20 whole entry): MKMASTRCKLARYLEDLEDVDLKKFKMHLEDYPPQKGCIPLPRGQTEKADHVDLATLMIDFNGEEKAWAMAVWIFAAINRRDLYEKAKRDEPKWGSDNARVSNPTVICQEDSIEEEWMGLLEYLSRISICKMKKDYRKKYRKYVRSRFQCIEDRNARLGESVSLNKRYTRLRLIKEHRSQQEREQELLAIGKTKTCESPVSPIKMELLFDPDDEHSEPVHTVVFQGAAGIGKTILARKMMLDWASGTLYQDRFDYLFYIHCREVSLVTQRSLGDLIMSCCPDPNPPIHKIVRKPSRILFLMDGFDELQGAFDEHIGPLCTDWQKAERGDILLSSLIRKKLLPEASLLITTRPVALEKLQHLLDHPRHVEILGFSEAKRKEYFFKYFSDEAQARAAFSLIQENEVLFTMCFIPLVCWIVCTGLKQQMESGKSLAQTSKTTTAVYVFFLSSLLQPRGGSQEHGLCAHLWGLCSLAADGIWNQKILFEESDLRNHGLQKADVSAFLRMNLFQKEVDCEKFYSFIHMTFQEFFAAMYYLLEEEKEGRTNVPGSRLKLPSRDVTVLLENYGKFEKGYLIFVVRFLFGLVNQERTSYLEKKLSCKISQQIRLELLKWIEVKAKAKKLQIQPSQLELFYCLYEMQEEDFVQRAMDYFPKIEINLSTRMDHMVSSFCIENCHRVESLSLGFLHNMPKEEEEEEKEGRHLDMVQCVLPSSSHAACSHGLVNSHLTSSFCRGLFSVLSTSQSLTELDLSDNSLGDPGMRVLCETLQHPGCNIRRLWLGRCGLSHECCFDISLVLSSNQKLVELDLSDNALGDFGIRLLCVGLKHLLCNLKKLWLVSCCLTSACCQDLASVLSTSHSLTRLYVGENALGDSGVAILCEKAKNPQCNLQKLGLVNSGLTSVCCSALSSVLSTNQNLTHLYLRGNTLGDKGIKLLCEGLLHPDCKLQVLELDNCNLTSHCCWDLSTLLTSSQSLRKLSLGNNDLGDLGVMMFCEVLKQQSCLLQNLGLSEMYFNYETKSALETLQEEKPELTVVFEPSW
Type: cell-based
Method: The cells were routinely passaged and grown to confluency (˜10^6 cells/ml). On the day of the experiment, THP-1 cells were harvested and resuspended into RPMI medium (without FBS). The cells were then counted and viability (>90%) checked by Trypan blue (Sigma #T8154). […] To this diluted cell solution was added LPS (Sigma #L4524) to give a 1 μg/ml Final Assay Concentration (FAC). 40 μl of the final preparation was aliquoted into each well of a 96-well plate. The plate thus prepared was used for compound screening.
The following method step-by-step assay was followed for compound screening. • 1. […] Incubate for 3 hours at 37° C., 5% CO2 • 4. Add 5 μl nigericin (Sigma #N7143) (FAC 5 μM) to all wells • 5. Incubate for 1 hr at 37° C., 5% CO2 • 6. At the end of the incubation period, spin plates at 300×g for 3 mins and remove supernatant • 7. Then add 50 μl of resazurin (Sigma #R7017) (FAC 100 μM resazurin in RPMI medium without FBS) and incubate plates for a further 1-2 hours at 37° C. and 5% CO2 • 8.

Q: For `CCN1CCC[C@@H](Nc2nc3nc(-c4c(C)cc(Cl)cc4O)cnc3o2)C1` [Example 113, 5-Chloro-2-[2-[[(3R)-1-ethyl-3-piperidyl]amino]oxazolo[4,5-b]pyrazin-5-yl]-3-methyl-phenol;2,2,2-trifluoroacetic acid], which IC50 is on record?
A: 0.5 nM

Q: With `CCN1CCCC[C@@H](Nc2nc3nc(-c4c(C)cc(C(F)(F)F)cc4O)ccc3o2)C1` [Example 91, 2-[2-[[(3R)-1-Ethylazepan-3-yl]amino]oxazolo[4,5-b]pyridin-5-yl]-3-methyl-5-(trifluoromethyl)phenol] as the compound, how does the IC50 read?
A: 4.9 nM

Q: For `CCN1CCC[C@@H](Nc2nc3nc(-c4c(C)cc(C#N)cc4O)cnc3o2)C1` [Example 109, 4-[2-[[(3R)-1-Ethyl-3-piperidyl]amino]oxazolo[4,5-b]pyrazin-5-yl]-3-hydroxy-5-methyl-benzonitrile;2,2,2-trifluoroacetic acid], which IC50 is on record?
A: 1.4 nM

Q: For `Cc1cc(C(F)(F)F)cc(O)c1-c1ccc2oc(N3CC(O)C3)nc2n1` [Example 12, 1-[5-[2-Hydroxy-6-methyl-4-(trifluoromethyl)phenyl]oxazolo[4,5-b]pyridin-2-yl]azetidin-3-ol], which IC50 is on record?
A: 215 nM

Q: `Cc1cc(C#N)cc(O)c1-c1ccc2oc(NC3CCCN4C[C@@H](O)CC34)nc2n1` (stereo partly drawn) [Example 115, 3-Hydroxy-5-methyl-4-[2-[[(2S)-2-hydroxy-1,2,3,5,6,7,8,8a-octahydroindolizin-8-yl]amino]oxazolo[4,5-b]pyridin-5-yl]benzonitrile;2,2,2-trifluoroacetic acid] was tested. Which IC50 did it give?
A: 48.5 nM

Q: For `Cc1cc(C(F)(F)F)cc(O)c1-c1ccc2oc(N3CCCC(O)C3)nc2n1` (single isomer, unassigned) [Example 3A, (3R or 3S)-1-[5-[2-hydroxy-6-methyl-4-(trifluoromethyl)phenyl]oxazolo[4,5-b]pyridin-2-yl]piperidin-3-ol], which IC50 is on record?
A: 75 nM

Q: How did the IC50 turn out when `CCN1CCC[C@@H](Nc2nc3nc(-c4c(C)cc(C(F)(F)F)cc4O)cc(C#N)c3o2)C1` [Example 117, 2-[[(3R)-1-Ethyl-3-piperidyl]amino]-5-[2-hydroxy-6-methyl-4 (trifluoromethyl)phenyl]-oxazolo[4,5-b]pyridine-7-carbonitrile] was run?
A: 5.2 nM

Q: How did the IC50 turn out when `CCN1CCCC(Nc2nc3nc(-c4c(C)cc(C(F)(F)F)cc4O)cnc3o2)C1` (racemic) [Example 32, (rac)-2-[2-[(1-Ethyl-3-piperidyl)amino]oxazolo[4,5-b]pyrazin-5-yl]-3-methyl-5-(trifluoromethyl)phenol;2,2,2-trifluoroacetic acid salt] was run?
A: 3 nM

Q: Which IC50 does the source give for `Cc1cc(Cl)cc(O)c1-c1ccc2oc(N[C@@H]3CCCN(C)C3)nc2n1` [Example 44, 5-Chloro-3-methyl-2-[2-[[(3R)-1-methyl-3-piperidyl]amino]oxazolo[4,5-b]pyridin-5-yl]phenol] here?
A: 0.7 nM

Q: For `CCN1C[C@@H](F)C[C@@H](Nc2nc3nc(-c4c(C)cc(Cl)cc4O)ccc3o2)C1` [Example 54, 5-Chloro-2-[2-[[(3R,5S)-1-ethyl-5-fluoro-3-piperidyl]amino]oxazolo[4,5-b]pyridin-5-yl]-3-methyl-phenol], which IC50 is on record?
A: 10.1 nM

Q: `Cc1cc(C(F)(F)F)cc(O)c1-c1ccc2oc(N3CCOCC3CN(C)C)nc2n1` (single isomer, unassigned) [Example 2B, 2-[2-[(3S or 3R)-3-[(Dimethylamino)methyl]morpholin-4-yl]oxazolo[4,5-b]pyridin-5-yl]-3-methyl-5-(trifluoromethyl)phenol] was tested. Which IC50 did it give?
A: 16.9 nM

Q: `Cc1cc(C#N)cc(O)c1-c1ccc2oc(N3CCC4CCN(C)CC43)nc2n1` (single isomer, unassigned) [Example 27A, 4-[2-[(3aS,7aR or 3aR,7aS)-6-methyl-3,3a,4,5,7,7a-hexahydro-2H-pyrrolo[2,3-c]pyridin-1-yl]oxazolo[4,5-b]pyridin-5-yl]-3-hydroxy-5-methyl-benzonitrile] was tested. Which IC50 did it give?
A: 578 nM

Q: Which IC50 does the source give for `Cc1cc(C(F)(F)F)cc(O)c1-c1cc(C)c2oc(N[C@@H]3CCCN(C)C3)nc2n1` [Example 33, 3-Methyl-2-[7-methyl-2-[[(3R)-1-methyl-3-piperidyl]amino]oxazolo[4,5-b]pyridin-5-yl]-5-(trifluoromethyl)phenol;2,2,2-trifluoroacetic acid salt] here?
A: 5.8 nM

Q: With `Cc1cc(C#N)cc(O)c1-c1ccc2oc(N[C@@H]3CCCN(CCO)C3)nc2n1` [Example 85, 3-Hydroxy-4-[2-[[(3R)-1-(2-hydroxyethyl)-3-piperidyl]amino]oxazolo[4,5-b]pyridin-5-yl]-5-methyl-benzonitrile] as the compound, how does the IC50 read?
A: 15.4 nM

Q: `CCN1CCC[C@@H](Nc2nc3nc(-c4c(C)cc(C)cc4O)ccc3o2)C1` [Example 123, 2-[2-[[(3R)-1-Ethyl-3-piperidyl]amino]oxazolo[4,5-b]pyridin-5-yl]-3,5-dimethyl-phenol] was tested. Which IC50 did it give?
A: 0.7 nM

Q: For `CCN1CCC[C@@H](Nc2nc3nc(-c4c(O)cc(Cl)cc4Cl)ccc3o2)C1` [Example 132, 3,5-Dichloro-2-[2-[[(3R)-1-ethyl-3-piperidyl]amino]oxazolo[4,5-b]pyridin-5-yl]phenol;2,2,2-trifluoroacetic acid], which IC50 is on record?
A: 0.7 nM

Q: Which IC50 does the source give for `CCN1CCC[C@@H](Nc2nc3nc(-c4c(C)cccc4O)ccc3o2)C1` [Example 125, 2-[2-[[(3R)-1-Ethyl-3-piperidyl]amino]oxazolo[4,5-b]pyridin-5-yl]-3-methyl-phenol] here?
A: 3 nM

Q: Which IC50 does the source give for `CCN1CCC(O)C(Nc2nc3nc(-c4c(C)cc(Cl)cc4O)ccc3o2)C1` (centres unmarked) [Example 124, 3-[[5-(4-Chloro-2-hydroxy-6-methyl-phenyl)oxazolo[4,5-b]pyridin-2-yl]amino]-1-ethyl-piperidin-4-ol] here?
A: 53.8 nM

Q: `CCN1CCC2CCN(c3nc4nc(-c5c(C)cc(C#N)cc5O)ccc4o3)C2C1` (single isomer, unassigned) [Example 72A, 4-[2-[(3aS,7aR)-6-Ethyl-3,3a,4,5,7,7a-hexahydro-2H-pyrrolo[2,3-c]pyridin-1-yl]oxazolo[4,5-b]pyridin-5-yl]-3-hydroxy-5-methyl-benzonitrile or 4-[2-[(3aR,7aS)-6-ethyl-3,3a,4,5,7,7a-hexahydro-2H-pyrrolo[2,3-c]pyridin-1-yl]oxazolo[4,5-b]pyridin-5-yl]-3-hydroxy-5-methyl-benzonitrile] was tested. Which IC50 did it give?
A: 1 nM

Q: Which IC50 does the source give for `Cc1cc(C#N)cc(O)c1-c1ccc2oc(N[C@@H]3CCC[C@H]3N(C)C)nc2n1` [Example 108, 4-[2-[[(1R,2R)-2-(Dimethylamino)cyclopentyl]amino]oxazolo[4,5-b]pyridin-5-yl]-3-hydroxy-5-methyl-benzonitrile] here?
A: 16.8 nM

Q: `CN1CCC[C@@H](Nc2nc3nc(-c4c(O)cc(F)cc4C(F)(F)F)ccc3o2)C1` [Example 126, 5-Fluoro-2-[2-[[(3R)-1-methyl-3-piperidyl]amino]oxazolo[4,5-b]pyridin-5-yl]-3-(trifluoromethyl)phenol;2,2,2-trifluoroacetic acid] was tested. Which IC50 did it give?
A: 3.9 nM

Q: How did the IC50 turn out when `CCN1CCC[C@@H](Nc2nc3ccc(-c4c(C)cc(Cl)cc4O)nc3[nH]2)C1` [Example 136, 5-Chloro-2-[2-[[(3R)-1-ethyl-3-piperidyl]amino]-3H-imidazo[4,5-b]pyridin-5-yl]-3-methyl-phenol] was run?
A: 1 nM

Q: For `Cc1ccc(C#N)c(O)c1-c1ccc2oc(N[C@@H]3CCCN(C)C3)nc2n1` [Example 82, 2-Hydroxy-4-methyl-3-[2-[[(3R)-1-methyl-3-piperidyl]amino]oxazolo[4,5-b]pyridin-5-yl]benzonitrile;2,2,2-trifluoroacetic acid], which IC50 is on record?
A: 128 nM

Q: How did the IC50 turn out when `Cc1cc(C(F)(F)F)cc(O)c1-c1ccc2oc(N3CCCC(O)C3)nc2n1` (single isomer, unassigned) [Example 3B, (3S or 3R)-1-[5-[2-hydroxy-6-methyl-4-(trifluoromethyl)phenyl]oxazolo[4,5-b]pyridin-2-yl]piperidin-3-ol] was run?
A: 28.6 nM

Q: Which IC50 does the source give for `CCN1CCC[C@@H](Nc2nc3nc(-c4c(C)cc(Cl)c(F)c4O)ccc3o2)C1` [Example 21, 5-Chloro-2-[2-[[(3R)-1-ethyl-3-piperidyl]amino]oxazolo[4,5-b]pyridin-5-yl]-6-fluoro-3-methyl-phenol;2,2,2-trifluoroacetic acid salt] here?
A: 0.6 nM

Q: How did the IC50 turn out when `Cc1cc(C(F)(F)F)cc(O)c1-c1ccc2oc(N[C@@H]3CCCN(CCO)C3)nc2n1` [Example 52, 2-[2-[[(3R)-1-(2-Hydroxyethyl)-3-piperidyl]amino]oxazolo[4,5-b]pyridin-5-yl]-3-methyl-5-(trifluoromethyl)phenol] was run?
A: 2.3 nM

Q: Which IC50 does the source give for `CCN1CCC[C@@H](Nc2nc3nc(-c4ccc(C(F)(F)F)cc4O)c(F)cc3[nH]2)C1` [Example 133, 2-[2-[[(3R)-1-Ethyl-3-piperidyl]amino]-6-fluoro-1H-imidazo[4,5-b]pyridin-5-yl]-5-(trifluoromethyl)phenol] here?
A: 80.3 nM

Q: `Cc1cc(C(F)(F)F)cc(O)c1-c1ccc2oc(N3CC[C@H]4CCN(C)C[C@H]43)nc2n1` (single isomer, unassigned) [Example 37B, 2-[2-[(3aR,7aS)-6-methyl-3,3a,4,5,7,7a-hexahydro-2H-pyrrolo[2,3-c]pyridin-1-yl]oxazolo[4,5-b]pyridin-5-yl]-3-methyl-5-(trifluoromethyl)-phenol or 2-[2-[(3aS,7aR)-6-Methyl-3,3a,4,5,7,7a-hexahydro-2H-pyrrolo[2,3-c]pyridin-1-yl]oxazolo[4,5-b]pyridin-5-yl]-3-methyl-5-(trifluoromethyl)phenol] was tested. Which IC50 did it give?
A: 1.1 nM

Q: `Cc1cc(C(F)(F)F)cc(O)c1-c1ccc2oc(N3CCCC(O)C3)nc2n1` (racemic) [Example 3, (rac)-1-[5-[2-Hydroxy-6-methyl-4-(trifluoromethyl)phenyl]oxazolo[4,5-b]pyridin-2-yl]piperidin-3-ol] was tested. Which IC50 did it give?
A: 75.4 nM
